ChEMBL document CHEMBL1127267, “p-Guanidinobenzoyl-[Hyp3, Thi5, D-Tic7, Oic8]bradykinin is almost completely devoid of the agonist effect of HOE140 on the endothelium-free femoral artery of sheep” (Bioorg Med Chem Lett, 1994)
Square brackets hold non-standard residues; d marks the D form. Peptide text beside a SMILES is read from it. * marks the point of attachment. Benzoyl(4-guanidino) = N=C(N)Nc1ccc(C(=O)*)cc1; Oic = O=C(O)[C@@H]1C[C@@H]2CCCC[C@@H]2N1; Hyp = O=C(O)[C@@H]1C[C@@H](O)CN1; dTic = O=C(O)[C@H]1Cc2ccccc2CN1; 2Thi = N[C@@H](Cc1cccs1)C(=O)O

Target: T1, B2 bradykinin receptor (Homo sapiens, UniProt P30411)
T1 sequence (P30411 whole entry): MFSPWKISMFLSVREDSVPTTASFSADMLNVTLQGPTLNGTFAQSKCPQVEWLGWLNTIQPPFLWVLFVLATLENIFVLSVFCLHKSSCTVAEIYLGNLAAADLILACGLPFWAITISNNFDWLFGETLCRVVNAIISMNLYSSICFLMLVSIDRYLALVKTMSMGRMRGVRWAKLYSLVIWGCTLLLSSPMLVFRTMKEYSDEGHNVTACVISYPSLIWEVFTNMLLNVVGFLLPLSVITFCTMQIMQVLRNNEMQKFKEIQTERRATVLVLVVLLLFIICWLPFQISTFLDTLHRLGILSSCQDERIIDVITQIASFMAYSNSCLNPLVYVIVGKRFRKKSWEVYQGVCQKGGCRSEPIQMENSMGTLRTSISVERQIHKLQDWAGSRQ
Assay: Antagonist effect against bradykinin B2 receptor was determined in rabbit jugular vein
Type: functional, tissue-based, Oryctolagus cuniculus
Details: target entry is the homologue from another species; read-out: pA2 (converted)

Kb: 0.263 nM
Compound: N=C(N)NCCC[C@H](NC(=O)[C@@H]1C[C@@H]2CCCC[C@@H]2N1C(=O)[C@H]1Cc2ccccc2CN1C(=O)[C@H](CO)NC(=O)[C@H](Cc1cccs1)NC(=O)CNC(=O)[C@@H]1C[C@@H](O)CN1C(=O)[C@@H]1CCCN1C(=O)[C@H](CCCNC(=N)N)NC(=O)c1ccc(NC(=N)N)cc1)C(=O)O ({Benzoyl(4-guanidino)}-RP[Hyp]G[2Thi]S[dTic][Oic]R-OH)
